Measurements published in US20070249725A1, “Pharmaceutical formulations of sympathetic antagonist for the treatment of chronic muscle pain” (priority 2006, published 2007).
Where a name gives a salt, the structure may show the parent alone.

Assays:
trigger point = assay: Efficacy and dosage study for intramuscular injection of phenoxybenzamine hydrochloride: subject-reported percent improvement from baseline; type: in vivo, human
Experimental: A total of 326 male and female subjects, approximately 15 to 85 years old with pain of 4-72 month duration were treated with various doses of phenoxybenzamine. If a potential subject had pain that was clearly muscular and clearly not due to arthritis, nerve root compression or other extramuscular cause, the subject was considered a candidate for phenoxybenzamine hydrochloride injection. Trigger points were identified by palpation. A monopolar EMG needle was then inserted into the trigger point. Another monopolar EMG needle was inserted into a nearby nontender fibers of the same muscle. […] The treatment was repeated in up to 10-12 trigger points per treatment session. Subjects could return for up to 6 treatment sessions, depending on the extent of their pain. The initial treatment was with a dose of 25 mg of phenoxybenzamine hydrochloride in an injection volume of 2 ml. […] For 318 subjects, data were available for analysis for the doses of phenoxybenzamine hydrochloride used, efficacy and incidence of serious adverse events.
Subjects were asked to quantify, in terms of percent improvement from baseline, how they felt after treatment.

[1] = pH of phenoxybenzamine formulations; type: physicochemical; settings: active solutions
Experimental: This was a multicenter, randomized, placebo-controlled, double-blind, dose response study of intramuscular phenoxybenzamine hydrochloride (PBZ) versus vehicle and saline placebos. Phenoxybenzamine formulation known in the art (propylene glycol and alcohol) and diluted in saline at the time of injection were evaluated. […] Patients with pain in the most commonly affected regions, the upper and lower back, were studied. Patients enrolled in this study were male or female with 4 months to 8 years of myofascial pain syndrome with identifiable active trigger points. Patients were required to have had EMG documented triggers points and meet the criteria of <10 uV in the adjacent muscle site and have a minimum of a 2:1 ratio of trigger point amplitude: adjacent amplitude. Attempts were made to obtain maximum amplitude in the trigger point.
For determination of the pH value of the active solutions, a 5% solution of the Phenoxybenzamine HCL measured 3.25. Examples of packaging material include 2-mL vials, Pharmatek Lot No. 0001, Part No. PTC-0001; rubber stoppers, Pharmatek Lot No. 0002, Part No. PTC-0002; Truedge® seals, Pharmatek Lot No. 0003, Part No. PTC-0003; Supor® filters, Pharmatek Lot No. 0005, Part No. PTC-0004; and labels, to be generated by PrimaPharm Inc. These can be supplied in the form of a kit.

With `CC(COc1ccccc1)N(CCCl)Cc1ccccc1` (centres unmarked) [Phenoxybenzamine Hydrochloride, phenoxybenzamine hydrochloride] the Mean % improvement (trigger point; 3 mg dose, Two month, 178 subjects (Interim data)) was 54.9%, the “% of Subjects with Greater than 25% Improvement” value (from here on “% of Subjects”) (trigger point; 10 mg dose, Four month, 84 subjects) was 63% and the “% of Subjects” value (trigger point; 10 mg dose, One month, 84 subjects) was 52%. For the same molecule, the “% of Subjects” value (trigger point; 10 mg dose, Three month, 84 subjects) was 66%, the “% of Subjects” value (trigger point; 10 mg dose, Two month, 84 subjects) was 68% and the “% of Subjects” value (trigger point; 25 mg dose, Four month, 16 subjects) was 53%. The “% of Subjects” value (trigger point; 25 mg dose, One month, 16 subjects) was 57%, the “% of Subjects” value (trigger point; 25 mg dose, One week, 16 subjects) was 40% and the “% of Subjects” value (trigger point; 25 mg dose, Two month, 16 subjects) was 66%. The “% of Subjects” value (trigger point; 10-12.5 mg dose, Four month, 8 subjects) was 100%, the “% of Subjects” value (trigger point; 10-12.5 mg dose, One month, 8 subjects) was 50% and the “% of Subjects” value (trigger point; 10-12.5 mg dose, Two month, 8 subjects) was 83%. For the same molecule, the “subjects reported no improvement in pain” value (trigger point; Example 1, after treatment) was “About 15%” and the “pH of a 5% solution” value [1] was 3.25.
